From PMC5866837, “Towards a generic physiologically based kinetic model to predict in vivo uterotrophic responses in rats by reverse dosimetry of in vitro estrogenicity data” (Archives of Toxicology, 2017)
Read-outs that look alike come from different tables or passages of the source. Marks after values point to notes of the source that are not given here.

Assays:
[1] = Rapid equilibrium dialysis (RED), fraction unbound in rat serum; format: in vitro ADME; conditions: RED 5 h at 37 °C, read-out: f ub (fraction unbound)
Experimental: The assay medium used in the ER-CALUX and the proliferation assay contains 5% FCS, so the RED assay was performed using the assay medium for these two assays and for rat serum. The f ub was determined using the protocol described by Waters et al. ([2008]). The RED device insert has two chambers, a plasma and a buffer chamber. […] After incubating for 5 h at 37 °C at 250 rpm on an orbital shaker, the system reaches equilibrium (van […] et al. [2011]). 25 μL of post-dialysis samples were collected from the plasma and buffer chambers in separate tubes. Simultaneously, 25 μL of corresponding buffer (PBS) was added to the sample taken from the plasma chamber and the same volume of corresponding rat serum or in vitro medium was added to the sample taken from the buffer chamber. Then, 300 μL cold precipitation buffer (90/10 ACN/water) was added to both samples to precipitate the proteins and release the compound. The samples were put on ice for 30 min and subsequently centrifuged for 15 min at 15,000×g (CT 15RE, Hitachi Koki Co., Ltd). Then, the supernatants were collected for UPLC analysis. By determining the compound concentration in each chamber, the fraction unbound can be calculated with the following equation: f ub = concentration in buffer chamber/concentration in plasma chamber (van […] et al. [2011]; Waters et al. [2008]). […]

[2] = design: method as in Hansch et al. [1995]; conditions: ref Hansch et al. [1995]; cited from earlier work
Caco-2 = conditions: cited from earlier work
[3] = Substrate depletion approach, in vitro clearance (CLint) with rat liver S9; format: in vitro ADME; conditions: for microsomal CLint at 3 µM / CLint in liver S9 at 3 µM: Sprague-Dawley, rat, liver S9 fraction; for CLint in liver S9 at 3 µM: 3 µM substrate
Source text: To develop a generic model, a fast and efficient approach needs to be applied to determine the hepatic clearance. To this end, a substrate depletion approach was used, as described by others (Jones and Houston [2004]; Obach [1999]; Obach and Reed-Hagen [2002]). Metabolic breakdown of the parent compound, referred to as “substrate depletion” is used to measure in vitro CLint of the parent compound, where the consumption rate of the parent compound using hepatic microsomes, hepatic S9 fractions or hepatocytes, is measured over a range of incubation times under linear conditions with respect to protein concentration and substrate concentration (Jones and Houston [2004]).
The CLint of the parent compounds via phase I and phase II metabolism was determined in incubations with liver S9 fraction from both male and female Sprague–Dawley rats, in the presence of all relevant co-factors NADPH, UDPGA, PAPS and acetyl CoA. To investigate whether the in vitro CLint value derived from incubations for individual reactions (with individual co-factors) is similar as the CLint value derived from incubations with all the co-factors together in one mixture, two approaches were applied. In the first approach, the parent compound was incubated with individual co-factors in Eppendorf tubes applying a final volume of 200 µL containing either 3 mM NADPH, 5 mM UDPGA (also including 5 mM MgCl2 and 0.025 mg/ml alamethicin), 0.2 mM PAPS, or 0.5 mM acetyl CoA, with 0.5 mg/ml liver S9 in 0.1 M potassium phosphate (pH 7.4) buffer. After pre-incubating the mixtures at 37 °C for 1 min, the reactions were started by adding 3 µM (final concentration) of the parent compound from a 100 times concentrated stock solution dissolved in DMSO. In the second approach, it was tested whether the methodology could be simplified by adding all the co-factors to one incubation mixture and the parent compound after pre-incubation. For both approaches, 14 time points were selected at which the reaction was terminated, being 0, 1, 2, 3, 4, 5, 7, 8.5, 10, 15, 20, 25, 30 and 45 min. To terminate the reaction 100 µL cold acetonitrile (ACN) was added to the mixture and the Eppendorf tubes were put on ice for 30 min. Subsequently, tubes were centrifuged at 15,000 rpm for 5 min (CT 15RE, Hitachi Koki Co., Ltd) and the supernatant was collected for UPLC analysis. For each incubation time point, a corresponding control was included, which was an incubation performed in the absence of co-factor(s). All incubations were performed in triplicate in three independent studies.
The concentration of the parent compound was quantified for all the incubations using UPLC analysis performed as described below. The ratio of remaining parent compound concentration between incubation sample (C compound) and the control without co-factor (C control) was calculated for each incubation time. Subsequently, the depletion curve of the parent compound [ln(C compound/C control)] against time was derived as described before (Jones and Houston [2004]; Obach [1999]; Obach and Reed-Hagen [2002]). The slope of the linear part of the depletion curve represents the elimination rate constant (k, min^−1) for elimination of the parent compound. Using the following equation, the in vitro clearance (CLint, in vitro) of the parent compound can be estimated: CLint, in vitro (µL/min/mg protein) = V (µL)/P (mg) × k (min^−1) (Obach [1999]; Sjögren et al. [2009]). V represents volume (µL) of incubation mixture and P is the protein amount (mg) in the mixture. The in vitro CLint value derived from incubations with all co-factors together in one mixture (approach 2) was compared with the sum of the CLint values derived from incubations with a single co-factor (approach 1). The in vitro CLint of the parent compound was scaled to a whole liver, assuming that the S9 protein concentration in the rat liver is 87 g/kg liver (Chiu and Ginsberg [2011]).
For BPA, the analytical method was slightly changed based on the method for E2. […]

[4] = female, pH 7.4, female Sprague–Dawley rat liver S9, all co-factors (NADPH, UDPGA, PAPS, acetyl CoA) in one mixture, read-out: Female CLint
[5] = male, pH 7.4, male Sprague–Dawley rat liver S9, all co-factors (NADPH, UDPGA, PAPS, acetyl CoA) in one mixture, read-out: Male CLint
[6] = male, pH 7.4, male Sprague–Dawley rat liver S9, individual co-factor NADPH
[7] = male, pH 7.4, male Sprague–Dawley rat liver S9, individual co-factor PAPS
[8] = male, pH 7.4, male Sprague–Dawley rat liver S9, individual co-factor UDPGA
[9] = male, pH 7.4, male Sprague–Dawley rat liver S9, read-out: CLint, SUM of incubations with individual co-factors

| Female CLint ([3]; female Sprague–Dawley rat liver S9, all co-factors (NADPH, UDPGA, PAPS, acetyl CoA) in one mixture) [µl/min/mg protein] | SMILES | fraction unbound at 5 h, 5 µM [1] | Log P ow [2] | Papp, Caco-2 (Caco-2; PBK model code, ref Yoshkawa et al. 2002) [x1E-6 cm/sec] | P app, Caco-2 (Caco-2; ref Yoshikawa et al. [2002]) [×10⁻⁶ cm/s] | CLint fold higher for female than for male rat liver S9 ([3]; all co-factors in one mixture) [fold] | microsomal CLint at 3 µM [3, 4] [µL/min/mg] | microsomal CLint at 3 µM [3, 5] [µL/min/mg] | CLint in liver S9 at 3 µM [3, 6] [µL/min/mg] | CLint in liver S9 at 3 µM [3, 7] [µL/min/mg] | CLint in liver S9 at 3 µM [3, 8] [µL/min/mg] | microsomal CLint at 3 µM [3, 9] [µL/min/mg] |
| --- | --- | --- | --- | --- | --- | --- | --- | --- | --- | --- | --- | --- |
| – | CC(C)(c1ccc(O)cc1)c1ccc(O)cc1 [BPA, bisphenol A] | 0.04 ± 0.001 | 3.3^a | 20 | 20 | 1.1 | 432 ± 12.5 | 392 ± 6.7 | 60 ± 4.8 | 3.4 ± 2.1 | 340 ± 7.8 | 403 ± 9.4 |
| 65.5 ± 12.3 | C[C@]12CC[C@@H]3c4ccc(O)cc4CC[C@H]3[C@@H]1CC[C@@H]2O [E2, 17β-estradiol] | 0.05 ± 0.005 | 4.0^a | – | – | – | 65.5 | 175 ± 13.3 | 155 ± 26.7 | 4.4 ± 1.6 | 23.3 ± 0.9 | 182 ± 26.8 |
